# Measurements: patent US9474790B2, “Stable, protracted GLP-1/glucagon receptor co-agonists for medical use” (Novo Nordisk A/S, priority 2013, dated 2016)
# Numbered stars: 1 amine (or outer) side, 2 acyl side, 3 side chain; on linkers, the order of the positions; unused ones are H or OH. Bridge positions count the residues as written; N and C are the ends. Square brackets hold non-standard residues; d marks the D form. Side chains are listed from the residue outwards. Peptide text beside a SMILES is read from it. I, II: the chains in the order shown. * marks the point of attachment. C18 diacid = O=C(O)CCCCCCCCCCCCCCCCC(=O)*; γGlu = O=C(O)[C@H](CCC(=O)[*:2])N[*:1]; Ac4c = NC1(C(=O)O)CCC1; AEEA = NCCOCCOCC(=O)O; Aib = CC(C)(N)C(=O)O
# Biological target: T1, human glucagon receptor (Homo sapiens, UniProt P47871)
# T1 construct: expressed in transfected cells; host or cells: BHK cells (parent BHK570, CRE luciferase clone BHK/KZ10-20-48), clone pLJ6'-4-25
# T1 sequence (P47871 26-477): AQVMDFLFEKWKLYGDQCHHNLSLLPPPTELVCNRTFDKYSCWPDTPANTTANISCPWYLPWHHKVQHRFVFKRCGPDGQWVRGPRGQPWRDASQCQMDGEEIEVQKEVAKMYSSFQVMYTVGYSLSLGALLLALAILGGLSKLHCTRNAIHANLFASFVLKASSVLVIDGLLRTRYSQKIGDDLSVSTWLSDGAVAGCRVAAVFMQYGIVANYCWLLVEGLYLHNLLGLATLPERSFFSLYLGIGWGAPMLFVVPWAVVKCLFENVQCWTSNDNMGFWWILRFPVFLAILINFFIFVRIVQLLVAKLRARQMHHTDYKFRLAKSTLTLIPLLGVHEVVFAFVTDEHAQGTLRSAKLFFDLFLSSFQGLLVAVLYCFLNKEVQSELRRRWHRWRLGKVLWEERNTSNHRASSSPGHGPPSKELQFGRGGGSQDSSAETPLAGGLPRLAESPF
# Assay: Glucagon receptor potency, CRE luciferase reporter gene assay in BHK cells
# Format: cell-based
# Conditions: BHK cells expressing human glucagon receptor, read-out: EC50 GlucR
# Procedure: The purpose of this example was to test the potency, of the glucagon derivatives of the invention, in vitro. The in vitro potency is the measure of human GLP-1 receptor or glucagon receptor activation, respectively, in a whole cell assay.
# In vitro potency was determined by measuring the response of human GLP-1 or glucagon receptor, respectively, in a reporter gene assay. The assay was performed in a stably transfected BHK cell line that expresses either the human GLP-1 receptor or the human glucagon receptor and contains the DNA for the cAMP response element (CRE) coupled to a promoter and the gene for firefly luciferase (CRE luciferase). […] When assay incubation was completed, the luciferase substrate (luciferin) was added and the enzyme converted luciferin to oxyluciferin and produces bioluminescence. The luminescence was measured as the readout for the assay.
# The cells used in this assay (clone pLJ6′-4-25) were BHK cells with BHK570 as a parent cell line expressing the CRE luciferase gene (clone BHK/KZ10-20-48) and were established by further transfection with the human glucagon receptor (clone pLJ6′ in pHZ-1 vector).
# The cells were cultured at 5% CO2 in DMEM medium with 10% FBS, 1×GlutaMAX, 1 mg/ml G418, 240 nM MTX (methotrexate) and 1% pen/strep (penicillin/streptomycin). They were aliquoted and stored in liquid nitrogen. Before each assay, an aliquot was taken up and washed three times in PBS before being suspended at the desired concentration in assay medium. For 96-well plates the suspension was made to give a final concentration of 5×10EE3 cells/well.
# The following chemicals were used in the assay: Pluronic F-68 (10%) (Gibco 2404), ovalbumin (Sigma A5503), DMEM w/o phenol red (Gibco 11880-028), 1 M Hepes (Gibco 15630), Glutamax 100× (Gibco 35050) and steadylite plus (PerkinElmer 6016757).
# Assay Medium consisted of DMEM w/o phenol red, 10 mM Hepes, 1× GlutaMAX, 2% Ovalbumin and 0.2% Pluronic F-68.
# Cell stocks were thawed in a 37° C. water bath. Cells were washed three times in PBS. The cells were counted and adjusted to 5×10EE3 cells/50 μl (1×10EE5 cells/ml) in Assay Medium. A 50 μl aliquot of cells was transferred to each well in the assay plate.
# Stocks of the test compounds and reference compounds were diluted to a concentration of […] in Assay Medium. Compounds were diluted 10-fold to give the following concentrations: 2×10EE-6 M, 2×10EE-7 M, 2×10EE-8 M; 2×10EE-9 M, 2×10EE-10 M, 2×10EE-11 M, 2×10EE-12 M and 2×10EE-13 M. For each compound a blank assay medium control was also included.
# A 50 μl aliquot of compound or blank was transferred from the dilution plate to the assay plate. Compounds were tested at the following final concentrations: 1×10EE-6 M, 1×10EE-7 M, 1×10EE-8 M; 1×10EE-9 M, 1×10EE-10 M, 1×10EE-11 M and 1×10EE-12 M and 1×10EE-13 M.
# The assay plate was incubated for 3 h in a 5% CO2 incubator at 37° C. The assay plate was removed from the incubator and allowed to stand at room temperature for 15 min. A 100 μl aliquot of steadylite plus reagent was added to each well of the assay plate (reagent is light sensitive). Each assay plate was covered with aluminum foil to protect it from light and shaken for 30 min at room temperature. Each assay plate was read in a Perkin Elmer TopCount NXT instrument.
# The data from the TopCount instrument was transferred to GraphPad Prism software. The software performed a non-linear regression (log(agonist) vs response-Variable slope (four parameter)). EC50 values were calculated by the software and reported in pM.
row,Structure (SMILES),EC50
1,"CC(C)C[C@H](NC(=O)[C@H](Cc1ccc(O)cc1)NC(=O)[C@H](CCCCN)NC(=O)[C@H](CO)NC(=O)[C@H](CC(C)C)NC(=O)[C@H](CC(=O)O)NC(=O)[C@H](CO)NC(=O)[C@@H](NC(=O)[C@H](Cc1ccccc1)NC(=O)[C@@H](NC(=O)CNC(=O)[C@H](CCC(N)=O)NC(=O)C1(NC(=O)[C@@H](N)Cc2c[nH]cn2)CCC1)[C@@H](C)O)[C@@H](C)O)C(=O)N[C@@H](CCC(=O)O)C(=O)N[C@@H](CO)C(=O)N[C@@H](CCCCN)C(=O)N[C@@H](CCCNC(=N)N)C(=O)N[C@@H](C)C(=O)N[C@@H](CCCNC(=N)N)C(=O)N[C@@H](CCC(=O)O)C(=O)N[C@@H](Cc1ccccc1)C(=O)N[C@H](C(=O)N[C@@H](CCC(N)=O)C(=O)N[C@@H](Cc1c[nH]c2ccccc12)C(=O)N[C@@H](CC(C)C)C(=O)N[C@@H](CC(C)C)C(=O)N[C@@H](CCCCNC(=O)CNC(=O)[C@H](CO)NC(=O)[C@H](CCC(=O)O)NC(=O)CNC(=O)[C@H](CO)NC(=O)CC[C@H](NC(=O)CC[C@H](NC(=O)CCCCCCCCCCCCCCCCC(=O)O)C(=O)O)C(=O)O)C(=O)N[C@H](C(N)=O)[C@@H](C)O)C(C)C [Example 36, N^ε28-[2-[[(2S)-2-[[(2S)-4-carboxy-2-[[2-[[(2S)-2-[[(4S)-4-carboxy-4-[[(4S)-4-carboxy-4-(17-carboxyheptadecanoylamino)butanoyl]amino]butanoyl]amino]-3-hydroxypropanoyl]amino]acetyl]amino]butanoyl]amino]-3-hydroxypropanoyl]amino]acetyl]-[Acb2,Leu10,Glu15,Lys17, Arg20,Glu21,Leu27,Lys28]-Glucagon amide] (I: H-H[Ac4c]QGTFTSDLSKYLESKRAREFVQWLLKT-NH2 / II: {C18 diacid-γGlu-γGlu}-SGESG; amide I:28-II:C; N-terminus assumed)",4 pM
2,"CC(C)C[C@H](NC(=O)[C@H](Cc1c[nH]c2ccccc12)NC(=O)[C@H](CCC(N)=O)NC(=O)[C@@H](NC(=O)[C@H](Cc1ccccc1)NC(=O)[C@H](CCC(=O)O)NC(=O)[C@H](CCCNC(=N)N)NC(=O)[C@H](C)NC(=O)[C@H](CCCNC(=N)N)NC(=O)[C@H](CCCNC(=N)N)NC(=O)C(C)(C)NC(=O)[C@H](CC(=O)O)NC(=O)[C@H](CC(C)C)NC(=O)[C@H](Cc1ccc(O)cc1)NC(=O)[C@H](CCCCN)NC(=O)[C@H](CO)NC(=O)[C@H](CC(C)C)NC(=O)[C@H](CC(=O)O)NC(=O)[C@H](CO)NC(=O)[C@@H](NC(=O)[C@H](Cc1ccccc1)NC(=O)[C@@H](NC(=O)CNC(=O)[C@H](CCC(N)=O)NC(=O)C(C)(C)NC(=O)[C@@H](N)Cc1c[nH]cn1)[C@@H](C)O)[C@@H](C)O)C(C)C)C(=O)N[C@@H](CC(C)C)C(=O)N[C@@H](CCCCNC(=O)CC[C@H](NC(=O)CC[C@H](NC(=O)COCCOCCNC(=O)COCCOCCNC(=O)CC[C@H](NC(=O)CCCCCCCCCCCCCCCCC(=O)O)C(=O)O)C(=O)O)C(=O)O)C(=O)N[C@H](C(N)=O)[C@@H](C)O [Example 51, N^ε28-[(4S)-4-carboxy-4-[[(4S)-4-carboxy-4-[[2-[2-[2-[[2-[2-[2-[[(4S)-4-carboxy-4-(17-carboxyheptadecanoylamino)butanoyl]amino]ethoxy]ethoxy]acetyl]amino]ethoxy]ethoxy]acetyl]amino]butanoyl]amino]butanoyl]-[Aib2,Leu10,Aib16,Arg20,Glu21,Leu27,Lys28]-Glucagon amide] (H-H[Aib]QGTFTSDLSKYLD[Aib]RRAREFVQWLLK([γGlu-γGlu-AEEA-AEEA-γGlu-C18 diacid])T-NH2; N-terminus assumed)",4 pM
3,"CC(C)C[C@H](NC(=O)[C@H](Cc1ccc(O)cc1)NC(=O)[C@H](CCCNC(=N)N)NC(=O)[C@H](CO)NC(=O)[C@H](CC(C)C)NC(=O)[C@H](CC(=O)O)NC(=O)[C@H](CO)NC(=O)[C@@H](NC(=O)[C@H](Cc1ccccc1)NC(=O)[C@@H](NC(=O)CNC(=O)[C@H](CCC(N)=O)NC(=O)C1(NC(=O)[C@@H](N)Cc2c[nH]cn2)CCC1)[C@@H](C)O)[C@@H](C)O)C(=O)N[C@@H](CCC(=O)O)C(=O)N[C@@H](CO)C(=O)N[C@@H](CCCNC(=N)N)C(=O)N[C@@H](CCCNC(=N)N)C(=O)N[C@@H](C)C(=O)N[C@@H](CCCNC(=N)N)C(=O)N[C@@H](CCC(=O)O)C(=O)N[C@@H](Cc1ccccc1)C(=O)N[C@H](C(=O)N[C@@H](CCC(N)=O)C(=O)N[C@@H](Cc1c[nH]c2ccccc12)C(=O)N[C@@H](CC(C)C)C(=O)N[C@@H](CC(C)C)C(=O)N[C@@H](CCCCNC(=O)CC[C@H](NC(=O)CC[C@H](NC(=O)COCCOCCNC(=O)COCCOCCNC(=O)CC[C@H](NC(=O)CC[C@H](NC(=O)CCCCCCCCCCCCCCCCC(=O)O)C(=O)O)C(=O)O)C(=O)O)C(=O)O)C(=O)N[C@H](C(N)=O)[C@@H](C)O)C(C)C [Example 59, N^ε28-[(4S)-4-carboxy-4-[[(4S)-4-carboxy-4-[[2-[2-[2-[[2-[2-[2-[[(4S)-4-carboxy-4-[[(4S)-4-carboxy-4-(17-carboxyheptadecanoylamino)butanoyl]amino]butanoyl]amino]ethoxy]ethoxy]acetyl]amino]ethoxy]ethoxy]acetyl]amino]butanoyl]amino]butanoyl]-[Acb2,Leu10,Arg12,Glu15,Arg20,Glu21,Leu27,Lys28]-Glucagon amide] (H-H[Ac4c]QGTFTSDLSRYLESRRAREFVQWLLK([γGlu-γGlu-AEEA-AEEA-γGlu-γGlu-C18 diacid])T-NH2; N-terminus assumed)",17 pM
4,"CC(C)C[C@H](NC(=O)[C@H](CC(=O)O)NC(=O)[C@H](CC(C)C)NC(=O)[C@H](Cc1ccc(O)cc1)NC(=O)[C@H](CCCCN)NC(=O)[C@H](CO)NC(=O)[C@H](CC(C)C)NC(=O)[C@H](CC(=O)O)NC(=O)[C@H](CO)NC(=O)[C@@H](NC(=O)[C@H](Cc1ccccc1)NC(=O)[C@@H](NC(=O)CNC(=O)[C@H](CCC(N)=O)NC(=O)C1(NC(=O)[C@@H](N)Cc2c[nH]cn2)CCC1)[C@@H](C)O)[C@@H](C)O)C(=O)N[C@@H](CCCNC(=N)N)C(=O)N[C@@H](CCCNC(=N)N)C(=O)N[C@@H](C)C(=O)N[C@@H](CCCNC(=N)N)C(=O)N[C@@H](CCC(=O)O)C(=O)N[C@@H](Cc1ccccc1)C(=O)N[C@H](C(=O)N[C@@H](CCC(N)=O)C(=O)N[C@@H](Cc1c[nH]c2ccccc12)C(=O)N[C@@H](CC(C)C)C(=O)N[C@@H](CC(C)C)C(=O)N[C@@H](CCCCNC(=O)CC[C@H](NC(=O)CC[C@H](NC(=O)COCCOCCNC(=O)COCCOCCNC(=O)CC[C@H](NC(=O)CC[C@H](NC(=O)CCCCCCCCCCCCCCCCC(=O)O)C(=O)O)C(=O)O)C(=O)O)C(=O)O)C(=O)N[C@H](C(N)=O)[C@@H](C)O)C(C)C [Example 49, N^ε28-[(4S)-4-carboxy-4-[[(4S)-4-carboxy-4-[[2-[2-[2-[[2-[2-[2-[[(4S)-4-carboxy-4-[[(4S)-4-carboxy-4-(17-carboxyheptadecanoylamino)butanoyl]amino]butanoyl]amino]ethoxy]ethoxy]acetyl]amino]ethoxy]ethoxy]acetyl]amino]butanoyl]amino]butanoyl]-[Acb2,Leu10,Leu16,Arg20,Glu21,Leu27,Lys28]-Glucagon amide] (H-H[Ac4c]QGTFTSDLSKYLDLRRAREFVQWLLK([γGlu-γGlu-AEEA-AEEA-γGlu-γGlu-C18 diacid])T-NH2; N-terminus assumed)",4 pM
